From patent US9084424B2, “N-benzyl heterocyclic carboxamides” (BAYER INTELLECTUAL PROPERTY GMBH, priority 2010, dated 2015)

How the values were obtained:
[1] = log P by HPLC on reversed-phase column (EEC Directive 79/831 Annex V.A8); assay type: physicochemical; details: 0.1% aqueous formic acid and acetonitrile, linear gradient 10% to 90% acetonitrile
Description: In table 1, the log P values were determined in accordance with EEC Directive 79/831 Annex V.A8 by HPLC (High Performance Liquid Chromatography) on a reversed-phase column (C 18), using the method described below: Temperature: 40° C.; Mobile phases: 0.1% aqueous formic acid and acetonitrile; linear gradient from 10% acetonitrile to 90% acetonitrile. Calibration was carried out using unbranched alkan-2-ones (comprising 3 to 16 carbon atoms) with known log P values (determination of the log P values by the retention times using linear interpolation between two successive alkanones). lambda-max-values were determined using UV-spectra from 200 nm to 400 nm and the peak values of the chromatographic signals.

[2] = system: Pyrenophora teres; assay: In vivo preventive test on Pyrenophora teres (barley); details: preventive spray, 500 ppm of active ingredient, evaluated 7-9 days after inoculation
Description: In Vivo Preventive Test on Pyrenophora teres (Barley)
Solvent: 49 parts by weight of N,N-dimethylacetamid
Emulsifier: 1 part by weight of alkylaryl polyglycol ether
To produce a suitable preparation of active compound, 1 part by weight of active compound is mixed with the stated amounts of solvent and emulsifier, and the concentrate is diluted with water to the desired concentration.
To test for preventive activity, young plants are sprayed with the preparation of active compound at the stated rate of application. One day after this treatment, the plants are inoculated with an aqueous spore suspension of Pyrenophora teres. The plants remain for 48 hours in an incubation cabinet at 22° C. and a relative atmospheric humidity of 100%. Then the plants are placed in a greenhouse at a temperature of approximately 20° C. and a relative atmospheric humidity of approximately 80%.
The test is evaluated 7-9 days after the inoculation. 0% means an efficacy which corresponds to that of the untreated control while an efficacy of 100% means that no disease is observed.

[3] = HPLC, reversed-phase C 18, 40° C.
[4] = HPLC on reversed-phase column (C 18), 40° C.

| logP [1, 3] | logP [1, 4] | SMILES | Efficacy [2] |
| --- | --- | --- | --- |
| 4.39 |  | Cn1nc(C(F)F)c(C(=O)NCc2c(Cl)cccc2Cl)c1F [Example 60] |  |
| 4.37 |  | CC(C)N(Cc1ccccc1[Si](C)(C)C)C(=O)c1c(C(F)F)nn(C)c1F [Example 102] |  |
| 4.19 |  | Cn1nc(C(F)F)c(C(=O)NC2(c3cc(Cl)ccc3Cl)CC2)c1Cl [Example 48] |  |
|  | 2.88 | CON(Cc1ncc(Cl)cc1Cl)C(=O)c1c(C(F)F)nn(C)c1Cl [Example 182] | 95% |
|  | 3.08 | Cn1nc(C(F)F)c(C(=O)NCc2ncc(C(F)(F)F)cc2Cl)c1Cl [Example 178] |  |
|  | 3.85 | Cn1nc(C(F)F)c(C(=O)N(Cc2ncc(Cl)cc2Cl)C2CCCC2)c1F [Example 183] |  |
| 3.02 |  | CN(Cc1cc(Cl)ccc1Cl)C(=O)c1c(C(F)F)nn(C)c1F [Example 58] |  |
|  | 3.44 | Cn1nc(C(F)F)c(C(=O)NCc2ccc3c(c2)CCCC3)c1Cl [Example 111] |  |
| 3.51 |  | CON(Cc1ccccc1C(C)C)C(=O)c1c(C(F)F)nn(C)c1Cl [Example 77] |  |
| 3.25 |  | CC(c1c(Cl)cccc1Cl)N(C)C(=O)c1c(C(F)F)nn(C)c1Cl (stereo not drawn) [Example 63] |  |
| 4.19 |  | Cn1nc(C(F)F)c(C(=O)NCc2ccc(Cl)cc2Cl)c1Cl [Example 34] |  |
| 2.31 |  | Cn1nc(C(F)F)c(C(=O)NC(C#N)c2cc(F)ccc2F)c1Cl (racemic) [Example 7] |  |
|  | 3.48 | CN(Cc1ccc(Oc2ccccc2)cc1)C(=O)c1c(C(F)F)nn(C)c1Cl [Example 155] |  |
| 3.02 |  | CN(Cc1c(Cl)cccc1Cl)C(=O)c1c(C(F)F)nn(C)c1Cl [Example 61] | 100% |
|  | 4.67 | CC(c1ncc(Cl)cc1Cl)N(C(=O)c1c(C(F)F)nn(C)c1Cl)C1CCCC1 (stereo not drawn) [Example 188] | 95% |
|  | 3.11 | CC(c1ncc(Cl)cc1Cl)N(C)C(=O)c1c(C(F)F)nn(C)c1Cl (stereo not drawn) [Example 186] |  |
|  | 2.01 | CN(Cc1cc(Cl)ccn1)C(=O)c1c(C(F)F)nn(C)c1Cl [Example 173] |  |
| 3.23 |  | CN(Cc1cc(Cl)ccc1Cl)C(=O)c1c(C(F)F)nn(C)c1Cl [Example 57] |  |
| 2.69 |  | Cn1nc(C(F)F)c(C(=O)NCc2ccccc2Cl)c1Cl [Example 21] |  |
| 3.81 |  | CC(C)c1ccc(Cl)cc1CN(CC(F)F)C(=O)c1c(C(F)F)nn(C)c1F [Example 80] | 100% |

| logP [1, 3] | logP [1, 4] | SMILES | Efficacy [2] |
| --- | --- | --- | --- |
| 3.37 |  | CN(Cc1ccc(Cl)cc1Cl)C(=O)c1c(C(F)F)nn(C)c1Cl [Example 42] |  |
| 2.50 |  | Cn1nc(C(F)F)c(C(=O)NCc2ccccc2Cl)c1F [Example 25] |  |
|  | 1.36 | COc1ccc(CNC(=O)c2c(C(F)F)nn(C)c2Cl)cc1OC [Example 120] |  |
| 3.13 |  | CC(c1c(Cl)cccc1Cl)N(C)C(=O)c1c(C(F)F)nn(C)c1F (stereo not drawn) [Example 64] | 95% |
|  | 3.96 | CN(Cc1ccc(Oc2ccc(Cl)cc2)cc1)C(=O)c1c(C(F)F)nn(C)c1Cl [Example 157] | 90% |
| 3.19 |  | CN(Cc1ccc(Cl)cc1Cl)C(=O)c1c(C(F)F)nn(C)c1F [Example 43] | 100% |
|  | 4.21 | Cn1nc(C(F)F)c(C(=O)N(Cc2ncc(C(F)(F)F)cc2Cl)C2CCCC2)c1Cl [Example 189] |  |
| 2.98 |  | Cn1nc(C(F)F)c(C(=O)NCc2ccccc2C2CC2)c1Cl [Example 66] |  |
|  | 1.30 | Cn1nc(C(F)F)c(C(=O)NC2(c3ccccn3)CCCC2)c1Cl [Example 171] |  |
| 2.90 |  | CN(Cc1ccccc1Br)C(=O)c1c(C(F)F)nn(C)c1Cl [Example 104] | 78% |
|  | 2.90 | Cn1nc(C(F)F)c(C(=O)NCc2ccc(C(F)(F)F)cc2)c1Cl [Example 124] |  |
| 4.08 |  | Cn1nc(C(F)F)c(C(=O)N(Cc2cc(Cl)ccc2C(F)(F)F)C2CSC2)c1Cl [Example 86] |  |
| 2.86 |  | Cn1nc(C(F)F)c(C(=O)NCc2c(F)cccc2C(F)(F)F)c1Cl [Example 96] |  |
| 3.89 |  | Cn1nc(C(F)F)c(C(=O)NC(C)(C)c2c(F)cccc2F)c1Cl [Example 10] |  |
|  | 3.33 | Cn1nc(C(F)F)c(C(=O)NCc2cccc(-c3ccccc3)c2)c1Cl [Example 165] |  |
|  | 2.70 | Cn1nc(C(F)F)c(C(=O)NCc2ccc(Cl)cc2)c1Cl [Example 128] |  |
| 4.39 |  | Cn1nc(C(F)F)c(C(=O)NCc2cc(Cl)ccc2Cl)c1Cl [Example 47] |  |
|  | 3.59 | Cn1nc(C(F)F)c(C(=O)NC(C)(C)c2cc(Cl)cc(Cl)c2)c1F [Example 114] |  |
| 3.89 |  | Cn1nc(C(F)F)c(C(=O)NCc2c(Cl)cccc2Cl)c1Cl [Example 59] |  |

More lines, now with the values behind:

| SMILES | logP [1, 3] | logP [1, 4] | Efficacy [2] |
| --- | --- | --- | --- |
| CC(C)N(Cc1c(Cl)cccc1C(F)(F)F)C(=O)c1c(C(F)F)nn(C)c1F [Example 92] | 3.61 |  | 70% |
| Cn1nc(C(F)F)c(C(=O)NCc2ccccc2Oc2ccccc2)c1Cl [Example 143] |  | 3.46 |  |
| Cn1nc(C(F)F)c(C(=O)NC(C)(C)c2c(F)cccc2F)c1F [Example 9] | 4.19 |  |  |
| CC(NC(=O)c1c(C(F)F)nn(C)c1F)c1ccc(C2CCCCC2)cc1 (stereo not drawn) [Example 129] |  | 4.34 | 100% |
| Cn1nc(C(F)F)c(C(=O)NCc2ccccc2-c2ccccc2)c1Cl [Example 164] |  | 3.39 |  |
| Cn1nc(C(F)F)c(C(=O)NC2(c3ccccn3)CCCC2)c1F [Example 172] |  | 1.13 |  |
| COc1ccc(C2(NC(=O)c3c(C(F)F)nn(C)c3F)CCCC2)cc1 [Example 133] |  | 3.06 | 95% |
| Cn1nc(C(F)F)c(C(=O)NCc2ccccc2-c2ccccc2)c1F [Example 163] |  | 3.21 |  |
| CC(NC(=O)c1c(C(F)F)nn(C)c1Cl)c1ccc(OCc2ccccc2)cc1 (racemic) [Example 159] |  | 3.58 | 95% |
| Cn1nc(C(F)F)c(C(=O)NCc2cccc(Oc3ccccc3)c2)c1Cl [Example 146] |  | 3.46 |  |
| Cn1nc(C(F)F)c(C(=O)N(Cc2ncc(C(F)(F)F)cc2Cl)C2CCCC2)c1F [Example 190] |  | 3.96 |  |
| C=CCN(Cc1c(Cl)cccc1C(F)(F)F)C(=O)c1c(C(F)F)nn(C)c1F [Example 94] | 3.37 |  | 80% |
| CCOc1ccc(C2(NC(=O)c3c(C(F)F)nn(C)c3F)CCCC2)cc1 [Example 131] |  | 3.44 | 94% |
| Cn1nc(C(F)F)c(C(=O)NCc2ccc(-c3ccccc3)cc2)c1Cl [Example 168] |  | 3.35 |  |
| COc1ccc(CNC(=O)c2c(C(F)F)nn(C)c2F)cc1OC [Example 119] |  | 1.79 |  |
| CCOc1ccc(C2(NC(=O)c3c(C(F)F)nn(C)c3Cl)CCCC2)cc1 [Example 130] |  | 3.59 |  |
| CC(C)c1ccccc1CN(CC#N)C(=O)c1c(C(F)F)nn(C)c1F [Example 67] | 2.94 |  | 90% |

| SMILES | logP [1, 3] | logP [1, 4] | Efficacy [2] |
| --- | --- | --- | --- |
| Cn1nc(C(F)F)c(C(=O)N(Cc2cc(Cl)ccc2C(F)(F)F)C2CSC2)c1F [Example 87] | 3.92 |  | 95% |
| Cn1nc(C(F)F)c(C(=O)NC(C#N)c2ccccc2)c1Cl (racemic) [Example 4] | 2.20 |  |  |
| C#CCN(Cc1c(Cl)cccc1C(F)(F)F)C(=O)c1c(C(F)F)nn(C)c1F [Example 93] | 3.05 |  | 95% |
| CCc1ccccc1CN(CC#N)C(=O)c1c(C(F)F)nn(C)c1F [Example 11] | 2.68 |  |  |
| COc1ccc(CNC(=O)c2c(C(F)F)nn(C)c2F)cc1 [Example 134] |  | 2.08 |  |
| Cn1nc(C(F)F)c(C(=O)NCc2ccc(Oc3ccccc3)cc2)c1Cl [Example 151] |  | 3.37 |  |
| Cn1nc(C(F)F)c(C(=O)NC(C#N)c2cc(F)ccc2F)c1F (racemic) [Example 8] | 2.01 |  |  |
| Cn1nc(C(F)F)c(C(=O)NCc2ccc(OCc3ccccc3)cc2)c1Cl [Example 160] |  | 3.37 |  |
| Cn1nc(C(F)F)c(C(=O)NCc2c(F)cccc2C(F)(F)F)c1F [Example 95] | 2.69 |  |  |
| Cn1nc(C(F)F)c(C(=O)N(CC#N)Cc2ccccc2[Si](C)(C)C)c1F [Example 97] | 3.52 |  |  |
| Cn1nc(C(F)F)c(C(=O)NC2(c3ccc(C(F)(F)F)cc3)CCCC2)c1Cl [Example 122] |  | 3.87 |  |
| CCc1ccccc1CN(C(=O)c1c(C(F)F)nn(C)c1F)C(C)C [Example 14] | 3.39 |  |  |
| COc1ccc(C2(NC(=O)c3c(C(F)F)nn(C)c3Cl)CCCC2)cc1 [Example 132] |  | 3.19 |  |
| Cn1nc(C(F)F)c(C(=O)NC(C#N)c2ccccc2)c1F (racemic) [Example 3] | 2.07 |  |  |
| Cn1nc(C(F)F)c(C(=O)NCc2ccc(C(F)(F)F)cc2)c1F [Example 123] |  | 2.75 |  |
| Cn1nc(C(F)F)c(C(=O)NC2(c3cccc(C(F)(F)F)c3)CCCC2)c1Cl [Example 109] |  | 3.80 |  |
| CC(C)c1ccccc1CN(C(=O)c1c(C(F)F)nn(C)c1F)C(C)C [Example 69] | 3.70 |  |  |
